≈ marks a conversion by molar mass, not a printed value.
Key:
Format in all cases: cell-based
Conditions in all cases: banded into grades
[1] = system: Aspergillus fumigatus AF293; assay: Measurement of Minimum Inhibitory Concentrations (MICs), A. fumigatus
Protocol: (§1) Between 1 and 5 mgs of compound were accurately weighed out into a sterile Eppendorf tube. The compound was dissolved in DMSO to give a solution containing 5 mg/mL. Tubes were stored at −20° C. until required. On the day of testing thawed solutions were vortex mixed to ensure homogeneity. 30 μL of solution was removed and added to 570 μL of sterile water in a separate sterile Eppendorf. The thoroughly mixed solution was used to prepare a series of doubling dilutions in water, in a deep well plate. […] replicate plates were prepared using a Minitrak by aspirating […] from each well into eleven clear polystyrene 96 well plates. Spores of Aspergillus spp. (Aspergillus fumigatus [two strains], Aspergillus terreus [two strains], Aspergillus niger and Aspergillus flavus) were harvested from cultures grown on Sabarauds agar for 5 days, and resuspended in PBS/Tween 80 to approx 1×10^7 cfu/mL. Each organism suspension was diluted in YAG medium (1% glucose, 1% ammonium chloride and 0.5% yeast extract) to 0.5-2×10^4 cfu/mL. 80 μL of an organism suspension was added to each well of the plate containing drug dilutions. This produced MIC plates with a drug range 50-0.05 mg/L and organism inocula of 1−2×10^4 cfu/mL for Aspergillus spp. All plates were incubated for 24 hrs at 35° C. Growth was assessed by monitoring the optical density at 485 nm for each well. The MIC of a compound is the lowest drug concentration that inhibits growth of an organism by >70% compared with a drug free control. MICs are recorded as mg/L. In cases where the MIC of an organism is >=0.05 mg/L the MIC is repeated using a concentration range of 0.5-0.0005 mg/L. Other growth media can be used for susceptibility testing, and the activity of the described compounds was also assessed in RPMI medium containing 2% glucose, and 0.135M MOPS buffer. MIC tests in YAG medium have more clear-cut endpoints and have slightly lower MICs than those performed in RPMI medium. The following organisms were tested: Aspergillus flavus, Aspergillus fumigatus AF293 and AF210, Aspergillus niger and Aspergillus terreus AT4 and AT49.

Aspergillus terreus AT4 = assay: Measurement of Minimum Inhibitory Concentrations (MICs), A. terreus
Protocol: as §1

Aspergillus flavus = assay: Measurement of Minimum Inhibitory Concentrations (MICs), A. flavus
Protocol: as §1

Aspergillus niger = assay: Measurement of Minimum Inhibitory Concentrations (MICs), A. niger
Protocol: as §1

[2] = system: Aspergillus fumigatus AF210; assay: Measurement of Minimum Inhibitory Concentrations (MICs), A. fumigatus 210
Protocol: as §1

Aspergillus terreus AT49 = assay: Measurement of Minimum Inhibitory Concentrations (MICs), A. terreus 49
Protocol: as §1

[3] = RPMI medium containing 2% glucose, 0.135M MOPS buffer
[4] = YAG medium, 24 hrs at 35° C., >70% growth inhibition

Structure (SMILES)	MIC [1, 3] [µg/mL]	MIC [1, 4] [µg/mL]	MIC (Aspergillus terreus AT4; [3]) [µg/mL]	MIC (Aspergillus terreus AT4; [4]) [µg/mL]	MIC (Aspergillus flavus; [3]) [µg/mL]	MIC (Aspergillus flavus; [4]) [µg/mL]	MIC (Aspergillus niger; [3]) [µg/mL]	MIC (Aspergillus niger; [4]) [µg/mL]	MIC [2, 3] [µg/mL]	MIC [2, 4] [µg/mL]	MIC (Aspergillus terreus AT49; [3]) [µg/mL]	MIC (Aspergillus terreus AT49; [4]) [µg/mL]
Cc1cc(C)nc(N2CCC(O)(c3ccc(NC(=O)C(=O)c4c(-c5ccccc5)cc5n4CCCC5)cc3)CC2)c1 [Example 21, N-[4-(4-Hydroxy-4′,6′-dimethyl-3,4,5,6-tetrahydro-2H-[1,2′]bipyridinyl-4-yl)-phenyl]-2-oxo-2-(2-phenyl-5,6,7,8-tetrahydro-indolizin-3-yl)-acetamide]	< 1	< 1	< 1	< 1	< 1	< 1	< 1	< 1	< 1	< 1	< 1	< 1
Cc1cc(C)nc(N2CCN(c3ccc(NC(=O)C(=O)c4c(-c5ccccc5)cc5n4CCCC5)cc3C)CC2)c1 [Example 22, N-{4-[4-(4,6-Dimethyl-pyridin-2-yl)-piperazin-1-yl]-3-methyl-phenyl}-2-oxo-2-(2-phenyl-5,6,7,8-tetrahydro-indolizin-3-yl)-acetamide]	< 1	< 1	< 1	< 1	< 1	< 1	< 1	< 1	< 1	< 1	< 1	< 1
COCc1cc(NC(=O)C(=O)c2c(-c3ccccc3)cc3n2CCCC3)ccc1N1CCN(c2cc(C)cc(C)n2)CC1 [Example 23, N-{4-[4-(4,6-Dimethyl-pyridin-2-yl)-piperazin-1-yl]-3-methoxymethyl-phenyl}-2-oxo-2-(2-phenyl-5,6,7,8-tetrahydro-indolizin-3-yl)-acetamide]	< 1	< 1	< 1	< 1	< 1	< 1	< 1	< 1	< 1	< 1	< 1	< 1
COCc1cc(N2CCN(c3cc(C)cc(C)n3)CC2)ccc1NC(=O)C(=O)c1c(-c2ccccc2)cc2n1CCCC2 [Example 24, N-{4-[4-(4,6-Dimethyl-pyridin-2-yl)-piperazin-1-yl]-2-methoxymethyl-phenyl}-2-oxo-2-(2-phenyl-5,6,7,8-tetrahydro-indolizin-3-yl)-acetamide]	1 to 10 (≈ 1.73 to 17.3 µM)	< 1	< 1	< 1	1 to 10 (≈ 1.73 to 17.3 µM)	< 1	1 to 10 (≈ 1.73 to 17.3 µM)	< 1	1 to 10 (≈ 1.73 to 17.3 µM)	< 1	< 1	< 1
Cc1cc(C)nc(N2CCN(c3ccc(NC(=O)C(=O)c4c(-c5ccccc5)cc5n4CCCC5)cc3COCCCN3CCN(C)CC3)CC2)c1 [Example 25, N-{4-[4-(4,6-Dimethyl-pyridin-2-yl)-piperazin-1-yl]-3-[3-(4-methyl-piperazin-1-yl)-propoxymethyl]-phenyl}-2-oxo-2-(2-phenyl-5,6,7,8-tetrahydro-indolizin-3-yl)-acetamide]	> 10	> 10	> 10	> 10	> 10	> 10	> 10	> 10	> 10	> 10	> 10	> 10
Cc1cc(C)nc(N2CCN(c3ccc(NC(=O)C(=O)c4c(-c5ccccc5)cc5n4CCCC5)cc3COCCCN3CCOCC3)CC2)c1 [Example 26, N-[4-[4-(4,6-Dimethyl-pyridin-2-yl)-piperazin-1-yl]-3-(3-morpholin-4-yl-propoxymethyl)-phenyl]-2-oxo-2-(2-phenyl-5,6,7,8-tetrahydro-indolizin-3-yl)-acetamide]	> 10	> 10	> 10	> 10	> 10	1 to 10 (≈ 1.45 to 14.5 µM)	> 10	> 10	> 10	> 10	> 10	> 10

— US8524705B2, “2-oxo-2-(2-phenyl-5,6,7,8-tetrahydro-indolizin-3-yl)-acetamide derivatives and related compounds as antifungal agents” (F2G Limited British Body Corporate, priority 2007, dated 2013)
